The values below come from patent publication US20180289008A1, “METHODS FOR WILDFIRE CONTROL, INVASIVE PLANT CONTROL, AND RESIDUAL CONTROL OF INVASIVE PLANTS” (priority 2017, published 2018).

The structures appear in SMILES notation.

In series [1] the test system is invasive winter annual grass (downy brome, feral rye, Japanese brome). The series can be described thus: Invasive winter annual grass field efficacy studies, biomass as percent of non-treated (Sites 1 and 2 combined). The series is classed as in vivo, Bromus tectorum, Secale cereale, Bromus japonicus. The settings on record: 1 YAT, EPRE timing, imazapic 123 g·ai·ha^−1. As to the method:
In year 1, field experiments were conducted to compare the effectiveness of indaziflam and imazapic for long-term invasive winter annual grass control, and to evaluate the response of the native plant communities. The experiments were established at two sites on the Colorado Front Range dominated by invasive winter annual grasses. Site 1 (lat 40° 15′2″N, long 105° 12′56″W) was infested with equal amounts of downy brome and Japanese brome. Site 2 (lat 40° 43′23″N, long 104° 55′58″W) was infested with feral rye. These two sites were approximately 58 km apart. Site 1 was located on Rabbit Mountain Open Space (Boulder County). Site 2 was located on a Colorado Parks and Wildlife Area (Larimer County). Before herbicide application in July, visual estimates were made across the entire study area of percentage of living canopy cover for all species present at both sites.
Site 1 was characterized by ˜80-100% downy brome and Japanese brome canopy cover with a dense fine-fuel layer, e.g., thatch, (2 to 5 cm), and a scattered stand of co-occurring species (˜0-10% canopy cover, Table 4). […]
Biomass harvests and species richness evaluations were conducted in August (year 2 and year 3) to evaluate invasive winter annual grass control and response of co-occurring species. […] Additionally, at Site 1, species richness was calculated for each treatment as a simple estimate of biological diversity. […]

In series [2] the test system is downy brome (Bromus tectorum). The series can be described thus: Herbicide efficacy field trial, visual percent control of downy brome. Format: in vivo. The settings on record: 4 YAT. As to the method: The present inventors conducted a field trial to evaluate the effectiveness of herbicides for long-term downy brome and Dalmatian toadflax control. The experiment was conducted at one site. The results provide the framework for the subsequent greenhouse experiment. (See below). The field experiment was located in Longmont, Colo. (lat 40° 14′57.53″N, long 105° 12′35.46″W) on Rabbit Mountain Open Space, the easternmost point of the foothills in Boulder County. The canopy cover of actively growing downy brome and Dalmatian toadflax at peak standing crop was approximately 85% and 30%, respectively. […]
For the herbicide efficacy field experiment, repeated measures analysis of variance (ANOVA) was used to determine the effects of herbicide treatments on long-term Dalmatian toadflax and downy brome control. Percent control data were first analyzed in SAS 9.3 using Proc MIXED, with year after treatment defined as the repeated measure (SAS Institute 2010). […] Dalmatian toadflax and downy brome control response variables were analyzed separately, and main effects and interactions were tested at the α=0.05 significance level. […] To determine herbicide impacts on residual Dalmatian toadflax and downy brome control, the significant treatment-by-year interaction was evaluated using the Proc GLIMMIX method and the LINES statement. […]

For series [3] the following is noted: pH 7; cited from earlier work.

Regarding `Cc1cnc(C2=NC(=O)C(C)(C(C)C)N2)c(C(=O)O)c1` (stereo not drawn) [Imazapic, imazapic], the “invasive winter annual grass control” value in series [1] is approximately 41%. Moreover, in series [2], the “residual downy brome control” value was “less than 25%”. For the same compound, the “Log Kow” value in series [3] is 0.01.
